The values below come from patent publication US12377067B2, “Methods of treating PAH with combinations of ralinepag and other agents” (Arena Pharmaceuticals, Inc., priority 2016, dated 2025).

The nature of data set [1]: Half-life in vivo. Particulars: irrespective of the dose.
In data set [2] the test system is human PASMCs from PAH patients. The data set can be described thus: Cyclic AMP assay. Type of data set: cell-based. Here is the method:
Human PASMCs from PAH patients were grown to 70-80% confluence in 12 well plates in DMEM/F12 containing 9% foetal bovine serum (FBS), penicillin (50 U/ml)/streptomycin (50 ag/ml). To assess the time-course of cAMP elevation, cells were stimulated with 100 nM ralinepag for varying times (0.5, 1, 2, 4, 8, 24, 48 hours). This dose of ralinepag was chosen on the basis that it was close to the EC50 for cAMP generation in preliminary experiments. In other experiments, the IP receptor agonist was added for a specified time (60 minutes) over a full concentration range (0.1-10,000 nM) in the absence and presence of […] of the IP receptor antagonist, RO-1138452. The antagonist is added 30 minutes beforehand and remained throughout.
To extract cyclic AMP, the medium was aspirated and PASMCs cells incubated in 0.1 M HCl for 20 minutes on ice followed by centrifugation at 1000 g for 10 minutes at 4° C. The protein concentration in the supernatant was determined using a […] protein assay (BCA, Novagen, EmD Chemicals, CA, USA). Intracellular cyclic AMP was measured using a competitive enzyme immunoassay 96 well plate kit (ADI-900-163, Enzo Life Sciences, Exeter, UK) and the assay performed according to the manufacturer's instructions. Each sample was run in duplicate and data expressed as pmol of cAMP per mg of total protein for each individual sample. Basal levels were subtracted from each agonist concentration data point. Given the large variation (˜15-fold) in cAMP generation from different patient samples, data was also normalized to the peak cyclic AMP response (assigned 100%) in each cell isolate.

Molecules are shown by their SMILES.

`O=C(O)COC[C@H]1CC[C@H](COC(=O)N(c2ccccc2)c2ccc(Cl)cc2)CC1` [ralinepag, 2-(((1r,4r)-4-(((4-chlorophenyl)(phenyl)carbamoyloxy)methyl)cyclohexyl)methoxy)acetic acid]: the plasma half-life entry in data set [1] was “relatively long plasma half-life”. For the same compound, in data set [2] (Homo sapiens, PASMC, preliminary experiments, read-out: EC50 for cAMP generation), the EC50 is approximately 100 nM. Moreover, the “maximal effect compared with treprostinil” value in data set [2] (cyclic AMP assay) is on record as “weaker maximal effects”. The “fold more cyclic AMP than MRE-269” value in data set [2] (ralinepag vs MRE-269) is on record as 2 fold.
